Earlier results, collected in patent publication US20050065128A1, “2-alkylidene-19-nor-vitamin D derivatives for the treatment of hypogonadism or andropause” (Pfizer Inc, priority 2003, published 2005).
Where two headings read alike, the source gives them in different places.

Tests used:
[1] = test system: Intestinal Calcium Transport; conditions: intraperitoneal, male weanling rats on vitamin D-deficient low-calcium diet, 24 h after last dose, mean ± SEM
[2] = test system: Serum Calcium (Bone Calcium Mobilization); conditions: for Serum Calcium (mg/100 ml): intraperitoneal, male weanling rats on vitamin D-deficient low-calcium diet, 24 h after last dose, mean ± SEM; for activity on bone calcium mobilization (serum calcium) relative to 1,25-(OH)2D3 (native hormone): chronic 7-day dosing in rats, fold of the native hormone
HL-60 cells = conditions: method of Ostrem et al.

For `C=C1[C@H](O)CC(=C/C=C2\CCC[C@]3(C)[C@@H]([C@H](C)CCCC(C)(C)O)CC[C@@H]23)C[C@H]1O` [2-Methylene-19-Nor-1,25-(OH)2D3, 1α,25-dihydroxy-2-methylene-19-nor-vitamin D3], the “Intestinal Calcium Transport (S/M)” value ([1]; 130 pmol/day for 7 days) is given as “no intestinal calcium transport activity”, the “Intestinal Calcium Transport (S/M)” value ([1]; 260 pmol/day for 7 days) is given as “no intestinal calcium transport activity” and the “Serum Calcium (mg/100 ml)” value ([2]; 130 pmol/day for 7 days) is given as “extremely strong bone calcium mobilization”. The “Serum Calcium (mg/100 ml)” value ([2]; 260 pmol/day for 7 days) was “extremely strong bone calcium mobilization”, the “activity on bone calcium mobilization (serum calcium) relative to 1,25-(OH)2D3 (native hormone)” value [2] was 10-100 times and the “inducing differentiation of HL-60 cells to the monocyte” value (HL-60 cells) was “activity similar to 1,25-(OH)2D3”.
In the case of `C=C1[C@H](O)CC(=C/C=C2\CCC[C@]3(C)[C@@H]([C@@H](C)CCCC(C)(C)O)CC[C@@H]23)C[C@H]1O` [2-Methylene-19-Nor-20S-1,25-(OH)2D3, (20S)-1α,25-dihydroxy-2-methylene-19-nor-vitamin D3], the “Intestinal Calcium Transport (S/M)” value ([1]; 130 pmol/day for 7 days) is listed as “no significant change”, the “Intestinal Calcium Transport (S/M)” value ([1]; 260 pmol/day for 7 days) is listed as “no significant change” and the “activity on bone calcium mobilization (serum calcium) relative to 1,25-(OH)2D3 (native hormone)” value [2] is listed as “at least 10 times”. The “inducing differentiation of HL-60 cells to the monocyte” value (HL-60 cells) was “extremely potent”.
